The values that follow come from patent US4808614A (priority 1987, dated 1989).

One assay has as its system Herpes simplex, type I. In words: cells. The following applies: Chlorocebus sabaeus, BSC-1, 72 h, read-out: Percent Plaque Inhibition. Type of assay: cell-based, Herpes simplex virus.
For the next assay, the system named is Pseudorabies Virus. In words: microbe, parasite or virus in culture. The assay is classed as cell-based. The following applies: Suid alphaherpesvirus 1, BSC-1, in Chlorocebus sabaeus, 72 h, read-out: Percent Plaque Inhibition.
Assay [1] has as its system X5563 plasma cell myeloma. Description: Oncolytic activity in tumor system X5563 plasma cell myeloma. The assay is classed as in vivo.
Another assay relates to 6C3HED lymphosarcoma. Description: Oncolytic activity in tumor system 6C3HED lymphosarcoma. Type of assay: in vivo.
A further assay deals with CA-755 adenocarcinoma. In words: Oncolytic activity in tumor system CA-755 adenocarcinoma. Type of assay: in vivo.
The test system of assay [2] is L1210V lymphocytic leukemia. Description: Oncolytic activity in tumor system L1210V lymphocytic leukemia. The assay is classed as in vivo.
Assay [3] concerns P1534J lymphatic leukemia. In words: Oncolytic activity in tumor system P1534J lymphatic leukemia. The assay is classed as in vivo.

As a reminder, the inhibition is the percentage by which the read-out fell short of the control.

Take `Cc1cn(C2O[C@H](CO)[C@@H](O)C2(F)F)c(=O)[nH]c1=O` (some centres unmarked) [DFAT, 1-(5-methyl-2,4-dioxo-1H,3H-pyrimidin-1-yl)-2-desoxy-2,2-difluororibose]: in the assay with Herpes simplex, type I, the inhibition at 0.39 µg/mL turned out to be 4%, the inhibition at 0.78 µg/mL was 8%, the inhibition at 1.56 µg/mL is 0% and the inhibition at 3.12 µg/mL was 12%. In the assay on Herpes simplex, type I, the inhibition at 6.25 µg/mL amounted to 15%, the inhibition at 12.5 µg/mL was determined as 35%, the inhibition at 25 µg/mL came out at 53% and the inhibition at 50 µg/mL came out at 72%. Also, the inhibition at 100 µg/mL in the assay with Herpes simplex, type I worked out at 96%. In addition, in the assay with Pseudorabies Virus, the inhibition at 3 µg/mL amounted to 5%, the inhibition at 6 µg/mL came to 6%, the inhibition at 12 µg/mL stood at 12% and the inhibition at 25 µg/mL turned out to be 15%. Further, in the assay on Pseudorabies Virus, the inhibition at 50 µg/mL worked out at 18% and the inhibition at 100 µg/mL stood at 23%.
Regarding `Nc1ccn(C2O[C@H](CO)[C@@H](O)C2(F)F)c(=O)n1` (some centres unmarked) [Example 8, 1-(2-oxo-4-amino-1H-pyrimidin-1-yl)-2-desoxy-2,2-difluororibose], the oncolytic activity result (in assay [1]; with 6C3HED lymphosarcoma; in the assay on CA-755 adenocarcinoma; in assay [2]; in assay [3]) was “demonstrated activity” each time.
